Data published in patent US5798365A, “Substituted quinoline derivatives, a process for their preparation, and their use” (Hoechst Aktiengesellschaft, priority 1994, dated 1998).
Converted amounts (≈) assume the structure as drawn. Like-named read-outs stand apart in the source and are kept apart here.

Tested on: HIV
Experiment: Testing preparations against HIV in cell culture (infected human donor lymphocytes)
Type: cell-based
Conditions: HIV-infected lymphocytes, 3 days; for MIC: Human immunodeficiency virus 1, 72 h, lowest concentration without giant cells; for IC50: Human immunodeficiency virus 1, Lymphocyte, 72 h, read-out: IC-50
Experimental: Testing preparations against HIV in cell culture
Description of the method
The complete medium additionally contains 20% foetal calf serum and 40 IU/ml recombinant interleukin 2.
Lymphocytes which have been isolated from fresh donor blood by means of Ficoll® gradient centrifugation are cultured, at 37° C. for 36 h and under 5% CO2, in complete medium in the added presence of […] phytohemagglutinin (Wellcome). After the addition of 10% DMSO, the cells are frozen at a cell density of 5×10^6 and stored in liquid nitrogen. For the experiment, the cells are thawed, washed in RPMI medium and cultured for 3-4 days in complete medium.
The preparations for testing were dissolved in DMSO at a concentration of 16.7 mg/ml and diluted to 1 mg/ml in complete medium. 0.4 ml of medium was initially introduced in 24-well multiwell plates. After 0.1 ml of the dissolved preparation had been added to the upper row of the plate, a geometrical dilution series was produced by transferring 0.1 ml on each occasion. Preparation-free controls always contained 0.4 ml of complete medium containing 0.5% DMSO.
Lymphocyte cultures having a cell count of 5×10^5 cells/ml were infected by adding a 1/50 volume of the supernatant from lymphocyte cultures infected with HIV. The titer of these culture supernatants was determined, by end point dilution, to be 1-5×10^6 infectious units/ml. After incubating at 37° C. for 30 min, the infected lymphocytes were centrifuged off and taken up once again in the same volume of medium. 0.6 ml of this cell suspension was added to each of the wells in the test plate. The assay mixtures were incubated at 37° C. for 3 days.
The infected cell cultures were examined under the microscope for the presence of giant cells, which indicate that the virus is multiplying actively in the culture. The lowest preparation concentration at which no giant cells appeared was defined as the inhibitory concentration against HIV (MIC value). As a control, the presence of HIV antigen in the supernatants from the culture plates was determined using a test for HIV antigen in accordance with the manufacturer's (Organon) instructions.

Row | MIC (37° C.) [µg/mL] | IC50 (37° C.) [µg/mL] | IC50 (unit as printed for compound 58) [µg/mL] | IC50 (unit as printed for compound 74) [µg/mL] | Compound
1 | 1 (≈ 4.21 µM) | ≥ 0.04 | – | – | C=C1c2cc(Cl)ccc2NC(=S)C1(C)C [Compound 1]
2 | > 0.2 | 0.04 (≈ 0.161 µM) | – | – | C=CC=C1c2cc(Cl)ccc2NC(=O)C1(C)C [Compound 13]
3 | < 0.2 | ~0.03 (≈ 0.0974 µM) | – | – | CCCCCC=C1c2cc(Cl)ccc2NC(=S)C1(C)C [Compound 16]
4 | < 0.02 | ~0.04 (≈ 0.152 µM) | – | – | CC(C)C=C1c2cc(Cl)ccc2NC(=O)C1(C)C [Compound 17]
5 | < 0.2 | ~0.02 (≈ 0.0872 µM) | – | – | C=CC=C1c2ccccc2NC(=S)C1(C)C [Compound 30]
6 | 0.2 (≈ 0.701 µM) | ~0.08 (≈ 0.28 µM) | – | – | CCCCCC=C1c2ccccc2NC(=S)C12CCC2 [Compound 32]
7 | < 0.04 | ~0.01 (≈ 0.0388 µM) | – | – | CC(C)C=C1c2ccccc2NC(=S)C12CCC2 [Compound 34]
8 | < 0.2 | ~0.01 (≈ 0.0304 µM) | – | – | CCCC=C1c2cc(OC(F)(F)F)ccc2NC(=S)C1(C)C [Compound 36]
9 | < 0.2 | ~0.08 (≈ 0.329 µM) | – | – | CC=C1c2ccccc2NC(=S)C12CCCC2 [Compound 38]
10 | 0.2 (≈ 0.771 µM) | ~0.2 (≈ 0.771 µM) | – | – | CCCC=C1c2cc(OC)ccc2NC(=O)C1(C)C [Compound 41, E/Z-4-n-butylene-3,4-dihydro-3,3-dimethyl-6-methoxyquinolin-2(1H)-one]
11 | 0.2 (≈ 0.771 µM) | 0.05 (≈ 0.193 µM) | – | – | COc1ccc2c(c1)C(=CC(C)C)C(C)(C)C(=O)N2 [Compound 43]
12 | 0.2 (≈ 0.815 µM) | 0.06 (≈ 0.245 µM) | – | – | CCC=C1c2cc(OC)ccc2NC(=O)C1(C)C [Compound 44]
13 | < 0.08 | ~0.015 (≈ 0.0518 µM) | – | – | CCOc1ccc2c(c1)C(=CC(C)C)C(C)(C)C(=S)N2 [Compound 47]
14 | < 0.1 | ~0.01 (≈ 0.0411 µM) | – | – | CCC=C1c2ccccc2NC(=O)C1(CC)CC [Compound 50]
15 | 0.1 (≈ 0.366 µM) | 0.05 (≈ 0.183 µM) | – | – | CCCC=C1c2cc(OCC)ccc2NC(=O)C1(C)C [Compound 54]
16 | < 0.1 | – | ~0.02 (≈ 0.0696 µM) | – | CCOc1ccc2c(c1)C(=CCC(C)C)C(C)(C)C(=O)N2 [Compound 58]
17 | < 0.008 | – | – | – | CC/C=C1/c2cc(Cl)ccc2NC(=S)C1(C)C [Compound 72]
18 | 0.04 (≈ 0.152 µM) | – | – | 0.02 (≈ 0.0758 µM) | CCC/C=C1/c2cc(Cl)ccc2NC(=O)C1(C)C [Compound 74, Z-4-n-butylene-6-chloro-3,4-dihydro-3,3-dimethylquinolin-2(1H)-one]
19 | 0.2 (≈ 0.725 µM) | ~0.03 (≈ 0.109 µM) | – | – | CCC=C1c2cc(Cl)ccc2NC(=O)C12CCCC2 [Compound 77]
20 | > 0.008 | < 0.008 | – | – | CC1(C)C(=S)Nc2ccc(F)cc2C1=C1CCCC1 [Compound 143]
